Among the data in patent US10532987B2, “Compounds and methods for inducing browning of white adipose tissue” (GUANGZHOU INSTITUTES OF BIOMEDICINE AND HEALTH, CHINESE …, priority 2015, dated 2020) are fold induction values, retold here.

For one experiment, the system named is Ucp1. The experiment can be described thus: UCP1 luciferase assay (Ucp1 up-regulation in differentiated inguinal adipocytes of Ucp1-luciferase knock-in mice). Format: cell-based. The settings on record: Mus musculus, Adipocyte, 48 h; at 0.3 μM; 2 days treatment; luciferase activity; read-out: Ucp1 activation fold/corresponding concentration. Here is the method: TEST EXAMPLE 1 UCP1 Luciferase Assay
Evaluating Compounds that Induce Ucp1 Up-Regulation
Ucp1-luciferase knock-in mice will be housed in cages and fed on standard chow diets (the detailed procedures please see reference 14). The 8-week-old mice will be killed by the cervical dislocation and put into 75% alcohol for 5 minutes. The inguinal adipose tissue will be dissected out and transferred to the three 10-cm petri dishes and washed with PBS for three times. The adipose tissue will be dissected and minced on a 10-cm petri dish for several minutes and then pipetted into 20 ml 0.1% collagenase solution in 50 ml conical tubes and digested at 37° C. for 1 hour. Next, 20 ml culture medium will be added to terminate the digestion and centrifuged for 10 minutes at 1000 rpm respectively. The supernatants will be removed and the pellets re-suspended in 10 mL culture medium and plated into 10-cm plates. The cells will be left to adhere to the plates overnight and the culture medium will be changed every other day. The confluent cells will be trypsinized, counted and plated to 24-well plate (5×10^4 cells/well). The cells will be washed and re-fed the next day (as day −2). Two days later (day 0), the cells will usually become confluent and be induced to differentiate with MDIR medium. On day 2, the medium will be changed to IR medium and re-fed every 2 days. Complete differentiation is usually achieved by day 10. On day 10, the medium will be changed to the culture medium of 10% FBS/DMEM with indicated drugs along with the positive and negative controls for 2 days. The media will be removed and the cells washed with 1 ml PBS per well three times. Then 100 μl lysis buffer will be used to lyse the cells at 4° C. for 1 hour. 30 μl culture medium, 30 μl cell lysates and 60 μl Steady-Glo® Reagent were added to a well of 96-well-plate and the luminescence will be measured using a luminometer. The protein concentration will be determined using 20 μl cell lysates and specific activity of luciferase will be tabulated and data analyzed.
For `O=C(O)COc1ccc(-c2csc(Nc3ccccn3)n2)cc1` [Compound 45, 2-(4-(2-(pyridin-2-ylamino)thiazol-4-yl)phenoxy)acetic acid], the fold induction at 0.3 µM is 1.3.
As for `COc1ccc(-c2csc(Nc3ccccn3)n2)c(OC)c1` [Compound 15, 4-(2,4-dimethoxyphenyl)-N-(pyridin-2-yl)thiazol-2-amine], the fold induction at 0.3 µM came to 1.4.
In the case of `CCOC(=O)N1CCC[C@H]1C(=O)Nc1nc(-c2ccc(OC)c(OC)c2)cs1` [Compound 71, (S)-ethyl 2-(4-(3,4-dimethoxyphenyl)thiazol-2-ylcarbamoyl)pyrrolidine-1-carboxylate], the fold induction at 0.3 µM turned out to be 1.7.
`COc1ccc(-c2csc(NC(C)=O)n2)cc1OC` [Compound 29, N-(4-(3,4-dimethoxyphenyl)thiazol-2-yl)acetamide]: the fold induction at 0.3 µM was found to be 1.2.
Same read-out and setting: with `COc1ccc(-c2csc(NC(=O)[C@@H]3CCCN3)n2)cc1OC` [Compound 70, (S)—N-(4-(3,4-dimethoxyphenyl)thiazol-2-yl)pyrrolidine-2-carboxamide] the figure was 1.7; with `c1ccc(Nc2nc(-c3c[nH]c4ccccc34)cs2)nc1` [Compound 7, 4-(1H-indol-3-yl)-N-(pyridin-2-yl)thiazol-2-amine], 1.2.

Still in this experiment, the particulars now being: Mus musculus, Adipocyte, 48 h; at 1 μM; 2 days treatment; luciferase activity; read-out: Ucp1 activation fold/corresponding concentration.
For `c1ccc(Nc2nc(-c3ccc(CN4CCOCC4)cc3)cs2)nc1` [Compound 54, 4-(4-(morpholinomethyl)phenyl)-N-(pyridin-2-yl)thiazol-2-amine], the fold induction at 1 µM was found to be 3.9.
With `CS(=O)(=O)c1ccc(-c2csc(Nc3ccccn3)n2)cc1` [Compound 51, 4-(4-(methylsulfonyl)phenyl)-N-(pyridin-2-yl)thiazol-2-amine], the fold induction at 1 µM came to 3.9.
For the compound `COc1ccc(-c2csc(Nc3cc4ccccc4cn3)n2)cc1OC` [Compound 6, 4-(3,4-dimethoxyphenyl)-N-(isoquinolin-3-yl)thiazol-2-amine], the fold induction at 1 µM came out at 1.2.
Same read-out and setting: with `O=C(Nc1cccnc1)c1ccc(-c2csc(Nc3ccccn3)n2)cc1` [Compound 64, 4-(2-(pyridin-2-ylamino)thiazol-4-yl)-N-(pyridin-3-yl)benzamide] the figure was 1.1.
Same read-out and setting: with `CN1CCN(C(=O)c2ccc(-c3csc(Nc4ccccn4)n3)cc2)CC1` [Compound 59, (4-methylpiperazin-1-yl)(4-(2-(pyridin-2-ylamino)thiazol-4-yl)phenyl)methanone] the figure was 4.
Regarding `Nc1ccc(-c2csc(Nc3ccccn3)n2)cc1` [Compound 35, 4-(4-aminophenyl)-N-(pyridin-2-yl)thiazol-2-amine], the fold induction at 1 µM was 3.7.
Turning to `Oc1ccc(-c2csc(Nc3ccccn3)n2)cc1` [Compound 41, 4-(2-(pyridin-2-ylamino)thiazol-4-yl)phenol], the fold induction at 1 µM turned out to be 3.3.
Regarding `CCNC(=O)c1ccc(-c2csc(Nc3ccccn3)n2)cc1` [Compound 53, N-ethyl-4-(2-(pyridin-2-ylamino)thiazol-4-yl)benzamide], the fold induction at 1 µM is 3.
On to `c1ccc(Nc2nc(-c3ccc4c(c3)CCC4)cs2)nc1` [Compound 81, 4-(2,3-dihydro-1H-inden-5-yl)-N-(pyridin-2-yl)thiazol-2-amine], for which the fold induction at 1 µM amounted to 2.
Same read-out and setting: with `COc1ccc(-c2csc(NC(=O)c3ccccc3)n2)cc1OC` [Compound 30, N-(4-(3,4-dimethoxyphenyl)thiazol-2-yl)benzamide] the figure was 1.1; with `CCCC(=O)Nc1ccc(-c2csc(Nc3ccccn3)n2)cc1` [Compound 39, N-(4-(2-(pyridin-2-ylamino)thiazol-4-yl)phenyl)butyramide], 3.4.
As for `COc1ccc(-c2csc(Nc3ccc(C)cn3)n2)cc1OC` [Compound 11, 4-(3,4-dimethoxyphenyl)-N-(5-methylpyridin-2-yl)thiazol-2-amine], the fold induction at 1 µM is 2.
As for `C#Cc1ccc(-c2csc(Nc3ccccn3)n2)cc1` [Compound 78, 4-(4-ethynylphenyl)-N-(pyridin-2-yl)thiazol-2-amine], the fold induction at 1 µM was 2.3.

Still in this experiment, the particulars now being: Mus musculus, Adipocyte, 48 h; at 3 μM; 2 days treatment; luciferase activity; read-out: Ucp1 activation fold/corresponding concentration.
As to `CCNC(=O)COc1ccc(-c2csc(Nc3ccccn3)n2)cc1` [Compound 47, N-ethyl-2-(4-(2-(pyridin-2-ylamino)thiazol-4-yl)phenoxy)acetamide], the fold induction at 3 µM was determined as 2.4.
On to `CCOC(=O)[C@@H]1CCCN1C(=O)c1ccc(-c2csc(Nc3ccccn3)n2)cc1` [Compound 67, (S)-ethyl 1-(4-(2-(pyridin-2-ylamino)thiazol-4-yl)benzoyl)pyrrolidine-2-carboxylate], for which the fold induction at 3 µM was determined as 3.1.
With `COC(=O)c1ccc(-c2csc(Nc3ccccn3)n2)cc1` [Compound 48, methyl 4-(2-(pyridin-2-ylamino)thiazol-4-yl)benzoate], the fold induction at 3 µM was determined as 6.
With `CC(=O)c1ccc(-c2csc(Nc3ccccn3)n2)cc1` [Compound 73, 1-(4-(2-(pyridin-2-ylamino)thiazol-4-yl)phenyl)ethanone], the fold induction at 3 µM worked out at 1.2.
On to `COc1cc(Br)ccc1-c1csc(Nc2ccccn2)n1` [Compound 25, 4-(4-bromo-2-methoxyphenyl)-N-(pyridin-2-yl)thiazol-2-amine], for which the fold induction at 3 µM was found to be 1.3.
With `O=C(Nc1ccncc1)c1ccc(-c2csc(Nc3ccccn3)n2)cc1` [Compound 65, 4-(2-(pyridin-2-ylamino)thiazol-4-yl)-N-(pyridin-4-yl)benzamide], the fold induction at 3 µM stood at 1.1.
As to `c1ccc(Nc2nc(-c3ccc(CN4CCCCC4)cc3)cs2)nc1` [Compound 72, 4-(4-(piperidin-1-ylmethyl)phenyl)-N-(pyridin-2-yl)thiazol-2-amine], the fold induction at 3 µM stood at 1.8.
Take `Clc1ccc(-c2csc(Nc3ccccn3)n2)cc1` [Compound 63, 4-(4-chlorophenyl)-N-(pyridin-2-yl)thiazol-2-amine]: the fold induction at 3 µM was found to be 5.9.
As for `CCOC(=O)COc1ccc(-c2csc(Nc3ccccn3)n2)cc1` [Compound 44, ethyl 2-(4-(2-(pyridin-2-ylamino)thiazol-4-yl)phenoxy)acetate], the fold induction at 3 µM was 1.9.
On the same count and under the same terms, with `COc1ccc(-c2csc(Nc3ccccc3)n2)cc1OC` [Compound 20, 4-(3,4-dimethoxyphenyl)-N-phenylthiazol-2-amine] the figure was 3.
Consider `CC(C)NC(=O)c1ccc(-c2csc(Nc3ccccn3)n2)cc1` [Compound 57, N-isopropyl-4-(2-(pyridin-2-ylamino)thiazol-4-yl)benzamide], for which the fold induction at 3 µM is 3.5.
As to `CC(C)(C)CNc1ccc(-c2csc(Nc3ccccn3)n2)cc1` [Compound 56, 4-(4-(neopentylamino)phenyl)-N-(pyridin-2-yl)thiazol-2-amine], the fold induction at 3 µM is 2.3.
As to `COc1ccc(-c2csc(NC(=O)c3ccccn3)n2)cc1OC` [Compound 32, N-(4-(3,4-dimethoxyphenyl)thiazol-2-yl)picolinamide], the fold induction at 3 µM was determined as 2.6.
On to `COc1ccc(-c2csc(Nc3nc4ccc(C)cc4s3)n2)cc1OC` [Compound 14, N-(4-(3,4-dimethoxyphenyl)thiazol-2-yl)-6-methylbenzo[d]thiazol-2-amine], for which the fold induction at 3 µM was 2.4.
For the compound `COc1ccc(-c2csc(Nc3cc(Cl)ccn3)n2)cc1OC` [Compound 13, N-(4-chloropyridin-2-yl)-4-(3,4-dimethoxyphenyl)thiazol-2-amine], the fold induction at 3 µM was found to be 1.6.
Still for that read-out and setting: with `CC(C)NC(=O)Nc1ccc(-c2csc(Nc3ccccn3)n2)cc1` [Compound 37, 1-isopropyl-3-(4-(2-(pyridin-2-ylamino)thiazol-4-yl)phenyl)urea] the figure was 2; with `c1ccc(Nc2nc(-c3ccc(-c4nn[nH]n4)cc3)cs2)nc1` [Compound 77, 4-(4-(2H-tetrazol-5-yl)phenyl)-N-(pyridin-2-yl)thiazol-2-amine], 1.1.
On to `c1ccc(Nc2nc(-c3ccncc3)cs2)nc1` [Compound 26, N-(pyridin-2-yl)-4-(pyridin-4-yl)thiazol-2-amine], for which the fold induction at 3 µM was found to be 3.5.
For the compound `c1ccc(-c2csc(Nc3ccccn3)n2)cc1` [Compound 4, 4-phenyl-N-(pyridin-2-yl)thiazol-2-amine], the fold induction at 3 µM was found to be 4.1.
Same read-out and setting: with `COc1cc(OC)cc(-c2csc(Nc3ccccn3)n2)c1` [Compound 18, 4-(3,5-dimethoxyphenyl)-N-(pyridin-2-yl)thiazol-2-amine] the figure was 5.3; with `CC(=O)N1CCC(c2ccc(-c3csc(Nc4ccccn4)n3)cc2)CC1` [Compound 61, 1-(4-(4-(2-(pyridin-2-ylamino)thiazol-4-yl)phenyl)piperidin-1-yl)ethanone], 3.2.
